Consider five molecules from US20140323476A1, “PEPTIDE DEFORMYLASE INHIBITORS” (priority 2011, published 2014).

A short description of data set [1]: Degradation rate on storage at forced conditions. As to conditions: forced conditions: 50° C., ambient humidity. It counts as physicochemical.
The next data set can be described thus: pH solubility curve. As to conditions: thermodynamic from solid. The data set is classed as physicochemical. The source says:
The pH solubility curve can be seen in Table 5 below.

The nature of data set [2]: Hydrolytic degradation rate of reconstituted lyophile. It counts as physicochemical. As to conditions: reconstituted lyophile at 5 mg/mL.
Data set [3] is described as follows: Dissolution rate in water, turbidity and visual inspection. The data set is classed as physicochemical. The method, then: [(2R)-2-(cyclopentyl methyl)-3-(2-{5-fluoro-6-[(9aS)-hexahydropyrazino[2,1-c][1,4]oxazin-8(1h)-yl]-2-methyl-4-pyrimidinyl}hydrazino)-3-oxopropyl]hydroxyformamide was triturated with a mortar and pestle. The resulting powder (20 g, 1.0 eq, basis) was charged to a 250 mL jacketed vessel. The vessel was equipped with an overhead stirrer which was set to 60 RPM. The jacket fluid was controlled to 23° C. A solution of purified water (125 mL) and methanesulphonic acid (4.0 g, 2.7 mL, 1.0 eq) was prepared. The aqueous methanesulphonic acid solution was added to the vessel containing [(2R)-2-(cyclopentyl methyl)-3-(2-{5-fluoro-6-[(9aS)-hexahydropyrazino[2,1-c][1,4]oxazin-8(1h)-yl]-2-methyl-4-pyrimidinyl}hydrazino)-3-oxopropyl]hydroxyformamide. The resulting suspension was stirred continuously and monitored by turbidity and visual inspection. After 1 day, the turbidity and pH readings stabilized.
[(2R)-2-(cyclopentyl methyl)-3-(2-{5-fluoro-6-[(9aS)-hexahydropyrazino[2,1-c][1,4]oxazin-8(1h)-yl]-2-methyl-4-pyrimidinyl}hydrazino)-3-oxopropyl]hydroxyformamide methanesulphonate was triturated with a mortar and pestle. The resulting powder (24 g, 1.0 eq) was charged to a similar 250 mL jacketed vessel. The vessel was equipped with an overhead stirrer which was set to 60 RPM. The jacket fluid was controlled to 23° C. Purified water (125 mL) was added to the vessel containing [(2R)-2-(cyclopentylmethyl)-3-(2-{5-fluoro-6-[(9aS)-hexahydropyrazino[2,1-c][1,4]oxazin-8(1h)-yl]-2-methyl-4-pyrimidinyl}hydrazino)-3-oxopropyl]hydroxyformamide methanesulphonate. The resulting suspension was stirred continuously and monitored by turbidity and visual inspection. A clear solution was observed visually and confirmed turbidimetrically at 3 minutes.

A short description of data set [4]: Adsorption of labile water versus relative humidity. The data set is classed as physicochemical.
Data set [5] has as its system Moraxella catarrhalis 1502. Nature of the data set: Antimicrobial activity assay (MIC). The data set is classed as cell-based. As to conditions: median of all results obtained, panel run 6 times. The protocol: (§1) Whole-cell antimicrobial activity was determined by broth microdilution using the Clinical and Laboratory Standards Institute (CLSI, formerly NCCLS) recommended methodology (NCCLS Document M7-A6, “Methods for Dilution Susceptibility Tests for Bacteria that Grow Aerobically—Approved Standard Sixth Edition”, 2003). Compounds were tested in serial two-fold dilutions ranging from 64 to 0.06 μg/mL. A panel of 12 strains was evaluated in the assay. This panel consisted of the following laboratory strains: Staphylococcus aureus Oxford, Staphylococcus aureus WCUH29, Enterococcus faecalis I, Enterococcus faecalis 7, Haemophilus influenzae Q1, Haemophilus influenzae NEMC1, Moraxella catarrhalis 1502, Streptococcus pneumoniae 1629, Streptococcus pneumoniae N1387, Streptococcus pneumoniae Ery2, Escherichia coli 7623 (AcrABEFD+) and Escherichia coli 120 (AcrAB−). The minimum inhibitory concentration (MIC) was determined as the lowest concentration of compound that inhibited visible growth. A mirror reader was used to assist in determining the MIC endpoint.

In data set [6] the test system is Haemophilus influenzae NEMC1. Nature of the data set: Antimicrobial activity assay (MIC). It counts as cell-based. The settings on record: median of all results obtained, panel run 6 times. The protocol: as §1
For data set [7], the system named is Staphylococcus aureus WCUH29. Nature of the data set: Antimicrobial activity assay (MIC). As to conditions: median of all results obtained, panel run 6 times. The data set is classed as cell-based. The method, then:
as §1

The subject of data set [8] is Escherichia coli 120 (AcrAB−). In words: Antimicrobial activity assay (MIC). It counts as cell-based. The protocol:
as §1

The test system of data set [9] is Haemophilus influenzae Q1. Nature of the data set: Antimicrobial activity assay (MIC). It counts as cell-based. As to conditions: median of all results obtained, panel run 6 times. The method, then: as §1
Data set [10] relates to Streptococcus pneumoniae N1387. In words: Antimicrobial activity assay (MIC). The data set is classed as cell-based. The settings on record: median of all results obtained, panel run 6 times. The protocol: as §1
The subject of data set [11] is Streptococcus pneumoniae Ery2. In words: Antimicrobial activity assay (MIC). As to conditions: median of all results obtained, panel run 6 times. It counts as cell-based. The protocol:
as §1

In the next data set the test system is Enterococcus faecalis 7. In words: Antimicrobial activity assay (MIC). The settings on record: median of all results obtained, panel run 6 times. It counts as cell-based. The protocol: as §1
In a further data set the test system is Enterococcus faecalis I. Nature of the data set: Antimicrobial activity assay (MIC). It counts as cell-based. The settings on record: median of all results obtained, panel run 6 times. The protocol:
as §1

For data set [12], the system named is Streptococcus pneumoniae 1629. In words: Antimicrobial activity assay (MIC). It counts as cell-based. The settings on record: median of all results obtained, panel run 6 times. The protocol:
as §1

For data set [13], the system named is Staphylococcus aureus Oxford. In words: Antimicrobial activity assay (MIC). The data set is classed as cell-based. As to conditions: median of all results obtained, panel run 6 times. The method, then: as §1
Data set [14] has as its system Escherichia coli 7623 (AcrABEFD+). In words: Antimicrobial activity assay (MIC). It counts as cell-based. As to conditions: median of all results obtained, panel run 6 times. The protocol:
as §1

The test system of another data set is panel of 12 strains. In words: Antimicrobial activity assay, broth microdilution, panel of 12 strains. The settings on record: compared with the examples from WO 03/101442. The data set is classed as cell-based. The protocol: as §1
(In general: Dilution methods test growth across graded concentrations, often in twofold steps.)

≈ marks a conversion by molar mass, not a printed value.

Take `Cc1nc(NNC(=O)[C@H](CC2CCCC2)CN(O)C=O)c(F)c(N2CCN3CCOC[C@@H]3C2)n1` [Example 1, [(2R)-2-(Cyclopentylmethyl)-3-(2-{5-fluoro-6-[(9aS)-hexahydropyrazino[2,1-c][1,4]oxazin-8(1H)-yl]-2-methyl-4-pyrimidinyl}hydrazino)-3-oxopropyl]hydroxyformamide]: the degradation rate in data set [1] (listed as free base) is listed as 1.7 %/month. The solubility worked out at 1.93 mg/mL (≈ 4020 µM) in the data set “pH solubility curve” (0.003M methanesulphonic acid, pH 4.86, aqueous buffer); 4.98 mg/mL (≈ 10400 µM) in the data set “pH solubility curve” (0.01M methanesulphonic acid, pH 4.33, aqueous buffer); 13.9 mg/mL (≈ 29000 µM) in the data set “pH solubility curve” (0.03M methanesulphonic acid, pH 3.98, aqueous buffer); 22 mg/mL (≈ 45900 µM) in the data set “pH solubility curve” (0.05M methanesulphonic acid, pH 3.76, aqueous buffer); 41.7 mg/mL (≈ 87000 µM) in “pH solubility curve” (0.1M methanesulphonic acid, pH 3.57, aqueous buffer); 116 mg/mL (≈ 242000 µM) in the data set “pH solubility curve” (0.3M methanesulphonic acid, pH 3.34, aqueous buffer). The solubility in the data set “pH solubility curve” (0.5M methanesulphonic acid, pH 3.39, aqueous buffer) worked out at 193 mg/mL (≈ 402000 µM); in “pH solubility curve” (1M methanesulphonic acid, pH 3.42, aqueous buffer), 347 mg/mL (≈ 724000 µM). Further, the “Degradation Rate % hydrolized/day” value is 0.06 % hydrolized/day in [2] (storage temperature 5° C., listed as Free base) and 0.53 % hydrolized/day in [2] (storage temperature 25° C., listed as Free base). Also, the “time observed without complete dissolution” value in data set [3] (20 g powder, 125 mL purified water with 1.0 eq methanesulphonic acid, 23° C., 60 RPM) is “over 7.1 days”.
The molecule `Cc1nc(NNC(=O)[C@H](CC2CCCC2)CN(O)C=O)c(F)c(N2CCN3CCOC[C@@H]3C2)n1` [Example 6] displayed a degradation rate in data set [1] (listed as mesylate) of 0.2 %/month. Also, the solubility in “pH solubility curve” (Purified Water, pH 3.2, equilibrium not reached) is more than 452 mg/mL. Further, the “Degradation Rate % hydrolized/day” value in data set [2] (storage temperature 5° C., listed as Mesylate) is given as 0.01 % hydrolized/day; in data set [2] (storage temperature 25° C., listed as Mesylate), 0.11 % hydrolized/day. The “time to clear solution” value in [3] (24 g powder, 125 mL purified water, 23° C., 60 RPM) stood at 3 min. In data set [3] (one equivalent of methanesulphonic acid and water, 160 mg/mL), the “dissolution and solubility compared to the free base” value is “faster dissolution and enhanced solubility”. In addition, the “relative humidity at which it deliquesces” value in data set [4] stood at 70 % relative humidity. Also, in data set [4] (up to 70% relative humidity), the “labile water adsorbed reversibly” value is listed as “up to 0.4 % (wt/wt)”.
For the molecule `CS(=O)(=O)O.Cc1nc(NNC(=O)[C@H](CC2CCCC2)CN(O)C=O)c(F)c(N2CCN3CCOC[C@@H]3C2)n1` [Example 11, [(2R)-2-(Cyclopentylmethyl)-3-(2-{5-fluoro-6-[(9aS)-hexahydropyrazino[2,1-c][1,4]oxazin-8(1H)-yl]-2-methyl-4-pyrimidinyl}hydrazino)-3-oxopropyl]hydroxyl formamide methanesulfonate polymorphic Form 2], the “labile water adsorbed reversibly” value in data set [4] (up to 95% relative humidity) was “up to 2 % (wt/wt)”.
Take `Cc1nc(NNC(=O)[C@H](CC2CCCC2)CN(O)C=O)c(F)c(N2CCN3CCOC[C@@H]3C2)n1` [Example 24, [(2R)-2-(Cyclopentylmethyl)-3-(2-{5-fluoro-6-[(9aS)-hexahydropyrazino[2,1-c][1,4]oxazin-8(1H)-yl]-2-methyl-4-pyrimidinyl}hydrazino)-3-oxopropyl]hydroxyformamide]: the MIC came to 0.375 µg/mL (≈ 0.782 µM) in [5]; 1 µg/mL (≈ 2.09 µM) in data set [6]; 0.375 µg/mL (≈ 0.782 µM) in data set [7]; 0.188 µg/mL (≈ 0.391 µM) in data set [8]; 0.5 µg/mL (≈ 1.04 µM) in [9]; 0.5 µg/mL (≈ 1.04 µM) in [10]. The MIC worked out at 0.375 µg/mL (≈ 0.782 µM) in data set [11]; 32 µg/mL (≈ 66.7 µM) in the data set on Enterococcus faecalis 7; 48 µg/mL (≈ 100 µM) with Enterococcus faecalis I; 0.75 µg/mL (≈ 1.56 µM) in [12]; 2 µg/mL (≈ 4.17 µM) in data set [13]; 16 µg/mL (≈ 33.4 µM) in data set [14].
Regarding `Cc1nc(NNC(=O)[C@H](CC2CCCC2)CN(O)C=O)c(F)c(N2CCN3CCOC[C@@H]3C2)n1` [[(2R)-2-(Cyclopentylmethyl)-3-(2-{5-fluoro-6-[(9aS)-hexahydropyrazino[2,1-c][1,4]oxazin-8(1H)-yl]-2-methyl-4-pyrimidinyl}hydrazino)-3-oxopropyl]hydroxyformamide], the “in vitro antibacterial activity (MIC and/or MIC90) and/or in vivo efficacy” value in the data set on panel of 12 strains is “greater in vitro antibacterial activity (MIC and/or MIC90) and/or better in vivo efficacy”.

Usually solubility stands for the concentration that dissolves in the medium under given conditions.
